Reference: the NIST ThermoML archive (doi:10.1016/j.fluid.2018.05.032)
Several values for one entry are separate records, joined by “and”; a condition that tells them apart may be missing. Equal values may be shown once. Numbers after ± are expanded uncertainties.

Assays:
[1] = for vapor or sublimation pressure: Closed cell (Static) method; for Normal melting temperature: DTA
[2] = molar heat capacity at constant pressure; settings: 101.33 kPa, DSC
[3] = Molar enthalpy of transition or fusion; settings: Crystal; DSC

CC(C)NCCO [2-isopropylaminoethanol]
Settings | molar heat capacity at constant pressure [J/K/mol] | vapor or sublimation pressure
[1], 248.13 K, Metastable liquid | – | 0.000252 ± 9.8e-05 kPa and 0.000251 ± 9.8e-05 kPa
[1], 253.14 K, Metastable liquid | – | 0.000472 ± 0.0001 kPa
[1], 253.15 K, Crystal | – | 0.000258 ± 9.9e-05 kPa and 0.000257 ± 9.9e-05 kPa and 0.000254 ± 9.9e-05 kPa
[1], 253.15 K, Metastable liquid | – | 0.000471 ± 0.0001 kPa and 0.000472 ± 0.0001 kPa
[1], 258.14 K, Crystal | – | 0.000482 ± 0.0001 kPa and 0.00048 ± 0.0001 kPa and 0.000479 ± 0.0001 kPa
[1], 258.15 K, Metastable liquid | – | 0.000864 ± 0.00011 kPa
[1], 263.15 K, Crystal | – | 0.000926 ± 0.00011 kPa and 0.000923 ± 0.00011 kPa and 0.000921 ± 0.00011 kPa
[1], 263.15 K, Metastable liquid | – | 0.001546 ± 0.00012 kPa and 0.001544 ± 0.00012 kPa
[1], 268.14 K, Crystal | – | 0.00171 ± 0.00013 kPa and 0.001709 ± 0.00013 kPa
[1], 268.14 K, Metastable liquid | – | 0.002688 ± 0.00015 kPa
[1], 273.14 K, Crystal | – | 0.00318 ± 0.00016 kPa and 0.003182 ± 0.00016 kPa and 0.003174 ± 0.00016 kPa
[1], 273.14 K, Metastable liquid | – | 0.004591 ± 0.0002 kPa
[1], 273.15 K, Metastable liquid | – | 0.004589 ± 0.0002 kPa and 0.00459 ± 0.0002 kPa
[1], 278.14 K, Crystal | – | 0.005875 ± 0.00025 kPa and 0.005872 ± 0.00025 kPa and 0.00587 ± 0.00025 kPa
[1], 278.14 K, Metastable liquid | – | 0.007669 ± 0.00032 kPa and 0.007676 ± 0.00032 kPa and 0.007665 ± 0.00032 kPa
[1], 283.14 K, Crystal | – | 0.01065 ± 0.00043 kPa and 0.01066 ± 0.00043 kPa and 0.01068 ± 0.00043 kPa
[1], 283.14 K, Metastable liquid | – | 0.01257 ± 0.0005 kPa
[1], 288.14 K, Crystal | – | 0.01909 ± 0.00061 kPa and 0.01911 ± 0.00061 kPa
[1], 288.15 K, Crystal | – | 0.0191 ± 0.00061 kPa
[1], 288.15 K, Metastable liquid | – | 0.0202 ± 0.00063 kPa
[1], 293.14 K, Liquid | – | 0.03179 ± 0.00081 kPa
[1], 298.11 K, Liquid | – | 0.04899 ± 0.0011 kPa
[1], 298.12 K, Liquid | – | 0.0492 ± 0.0011 kPa
[1], 298.14 K, Liquid | – | 0.04914 ± 0.0011 kPa and 0.04915 ± 0.0011 kPa
[1], 298.17 K, Liquid | – | 0.04928 ± 0.0011 kPa
[1], 303.04 K, Liquid | – | 0.07439 ± 0.0015 kPa and 0.0744 ± 0.0015 kPa and 0.07435 ± 0.0015 kPa
[1], 303.14 K, Liquid | – | 0.0747 ± 0.0015 kPa and 0.07469 ± 0.0015 kPa and 0.07473 ± 0.0015 kPa
[1], 308.01 K, Liquid | – | 0.1111 ± 0.0022 kPa
[1], 308.03 K, Liquid | – | 0.1112 ± 0.0022 kPa
[1], 308.04 K, Liquid | – | 0.1112 ± 0.0022 kPa
[1], 308.14 K, Liquid | – | 0.1119 ± 0.0021 kPa
[1], 308.15 K, Liquid | – | 0.1119 ± 0.0021 kPa and 0.1118 ± 0.0021 kPa
[1], 313 K, Liquid | – | 0.164 ± 0.0027 kPa
[1], 313.01 K, Liquid | – | 0.1642 ± 0.0027 kPa
[1], 317.9 K, Liquid | – | 0.2372 ± 0.0036 kPa and 0.2373 ± 0.0036 kPa
[1], 322.97 K, Liquid | – | 0.3405 ± 0.0049 kPa
[1], 322.98 K, Liquid | – | 0.3407 ± 0.0049 kPa
[1], 327.95 K, Liquid | – | 0.4814 ± 0.0066 kPa and 0.4815 ± 0.0066 kPa
[1], 332.99 K, Liquid | – | 0.6731 ± 0.0089 kPa and 0.6728 ± 0.0089 kPa
[1], 337.93 K, Liquid | – | 0.9221 ± 0.012 kPa and 0.9223 ± 0.012 kPa
[1], 342.94 K, Liquid | – | 1.257 ± 0.016 kPa
[2], 265 K, Metastable liquid | 240.4 ± 9.3 | –
[2], 270 K, Metastable liquid | 243.1 ± 9.4 | –
[2], 275 K, Metastable liquid | 245.8 ± 9.5 | –
[2], 280 K, Metastable liquid | 248.5 ± 9.6 | –
[2], 285 K, Metastable liquid | 251 ± 9.7 | –
[2], 290 K, Liquid | 253.8 ± 9.8 | –
[2], 295 K, Liquid | 256.9 ± 10 | –
[2], 300 K, Liquid | 260.1 ± 10 | –
[2], 305 K, Liquid | 263.3 ± 10 | –
[2], 310 K, Liquid | 266.6 ± 10 | –
[2], 315 K, Liquid | 270.1 ± 10 | –
[2], 320 K, Liquid | 273.5 ± 11 | –
[2], 325 K, Liquid | 277.2 ± 11 | –
[2], 330 K, Liquid | 280.7 ± 11 | –
[2], 335 K, Liquid | 284.3 ± 11 | –
[2], 340 K, Liquid | 287.7 ± 11 | –
[2], 345 K, Liquid | 291.1 ± 11 | –
[2], 350 K, Liquid | 294.9 ± 11 | –
[2], 355 K, Liquid | 298.5 ± 12 | –

Settings | Normal melting temperature [°C]
[1], Crystal | 16 ± 2

Settings | Molar enthalpy of transition or fusion [kcal/mol]
[3] | 4.54 ± 0.717

CCNCCO [2-(ethylamino)ethanol]
Settings | molar heat capacity at constant pressure [J/K/mol] | vapor or sublimation pressure
[1], 238.05 K, Crystal | – | 5e-05 ± 9.4e-05 kPa and 4.9e-05 ± 9.4e-05 kPa and 4.8e-05 ± 9.4e-05 kPa
[1], 243.07 K, Crystal | – | 0.000113 ± 9.6e-05 kPa and 0.000112 ± 9.6e-05 kPa
[1], 243.07 K, Metastable liquid | – | 0.000222 ± 9.6e-05 kPa and 0.000223 ± 9.6e-05 kPa and 0.000221 ± 9.6e-05 kPa
[1], 248.11 K, Metastable liquid | – | 0.000424 ± 9.9e-05 kPa and 0.000423 ± 9.9e-05 kPa
[1], 248.13 K, Crystal | – | 0.000251 ± 9.8e-05 kPa and 0.000252 ± 9.8e-05 kPa
[1], 248.14 K, Crystal | – | 0.000253 ± 9.8e-05 kPa
[1], 253.13 K, Crystal | – | 0.000545 ± 0.0001 kPa and 0.000544 ± 0.0001 kPa and 0.000546 ± 0.0001 kPa
[1], 253.13 K, Metastable liquid | – | 0.000783 ± 0.00011 kPa and 0.000784 ± 0.00011 kPa and 0.000781 ± 0.00011 kPa
[1], 258.13 K, Crystal | – | 0.001146 ± 0.00011 kPa
[1], 258.13 K, Metastable liquid | – | 0.001403 ± 0.00012 kPa and 0.001401 ± 0.00012 kPa
[1], 258.14 K, Crystal | – | 0.001142 ± 0.00011 kPa and 0.001139 ± 0.00011 kPa
[1], 258.14 K, Metastable liquid | – | 0.001403 ± 0.00012 kPa
[1], 263.13 K, Metastable liquid | – | 0.002453 ± 0.00014 kPa
[1], 263.14 K, Crystal | – | 0.002334 ± 0.00014 kPa and 0.002326 ± 0.00014 kPa and 0.00232 ± 0.00014 kPa
[1], 263.14 K, Metastable liquid | – | 0.002454 ± 0.00014 kPa
[1], 268.14 K, Liquid | – | 0.004201 ± 0.00019 kPa and 0.004205 ± 0.00019 kPa and 0.004206 ± 0.00019 kPa
[1], 273.14 K, Liquid | – | 0.007045 ± 0.00029 kPa and 0.007039 ± 0.00029 kPa and 0.007052 ± 0.00029 kPa
[1], 278.14 K, Liquid | – | 0.01158 ± 0.00046 kPa
[1], 283.14 K, Liquid | – | 0.01862 ± 0.0006 kPa and 0.01863 ± 0.0006 kPa
[1], 288.14 K, Liquid | – | 0.02935 ± 0.00077 kPa and 0.02936 ± 0.00077 kPa and 0.02934 ± 0.00077 kPa
[1], 293.13 K, Liquid | – | 0.04545 ± 0.001 kPa and 0.04543 ± 0.001 kPa
[1], 298.14 K, Liquid | – | 0.06913 ± 0.0014 kPa and 0.06915 ± 0.0014 kPa
[1], 303.13 K, Liquid | – | 0.1034 ± 0.0019 kPa
[1], 303.14 K, Liquid | – | 0.1035 ± 0.0019 kPa
[1], 308.14 K, Liquid | – | 0.1525 ± 0.0022 kPa
[2], 265 K, Liquid | 215.4 ± 8.3 | –
[2], 270 K, Liquid | 217.1 ± 8.4 | –
[2], 275 K, Liquid | 218.8 ± 8.5 | –
[2], 280 K, Liquid | 220.3 ± 8.5 | –
[2], 285 K, Liquid | 222 ± 8.6 | –
[2], 290 K, Liquid | 223.6 ± 8.7 | –
[2], 295 K, Liquid | 225.5 ± 8.7 | –
[2], 300 K, Liquid | 227.7 ± 8.8 | –
[2], 305 K, Liquid | 229.9 ± 8.9 | –
[2], 310 K, Liquid | 232.1 ± 9 | –
[2], 315 K, Liquid | 234.6 ± 9.1 | –
[2], 320 K, Liquid | 237 ± 9.2 | –
[2], 325 K, Liquid | 239.5 ± 9.3 | –
[2], 330 K, Liquid | 242 ± 9.4 | –
[2], 335 K, Liquid | 244.4 ± 9.5 | –
[2], 340 K, Liquid | 247 ± 9.6 | –
[2], 345 K, Liquid | 249.9 ± 9.7 | –
[2], 350 K, Liquid | 252.9 ± 9.8 | –
[2], 355 K, Liquid | 255.9 ± 9.9 | –

Settings | Normal melting temperature [°C]
[1], Crystal | -9.2 ± 0.7

Settings | Molar enthalpy of transition or fusion [kcal/mol]
[3] | 3.94 ± 0.167

CCN(CC)CCO [(diethylamino)ethanol]
Liquid
Settings | molar heat capacity at constant pressure [J/K/mol] | vapor or sublimation pressure
[1], 273.64 K | – | 0.03488 ± 0.00086 kPa and 0.0349 ± 0.00086 kPa and 0.03489 ± 0.00086 kPa
[1], 278.14 K | – | 0.05131 ± 0.0011 kPa and 0.05133 ± 0.0011 kPa
[1], 278.15 K | – | 0.05134 ± 0.0011 kPa
[1], 283.14 K | – | 0.07733 ± 0.0015 kPa
[1], 283.15 K | – | 0.07737 ± 0.0015 kPa
[1], 288.15 K | – | 0.1146 ± 0.0021 kPa
[1], 293.14 K | – | 0.167 ± 0.0024 kPa and 0.1669 ± 0.0024 kPa
[1], 298.15 K | – | 0.2393 ± 0.003 kPa
[1], 303.14 K | – | 0.3378 ± 0.0039 kPa and 0.3379 ± 0.0039 kPa
[1], 303.15 K | – | 0.338 ± 0.0039 kPa
[1], 308.15 K | – | 0.4708 ± 0.005 kPa and 0.4709 ± 0.005 kPa
[2], 265 K | 260.6 ± 10 | –
[2], 270 K | 263.9 ± 10 | –
[2], 275 K | 267.1 ± 10 | –
[2], 280 K | 270 ± 10 | –
[2], 285 K | 272.8 ± 11 | –
[2], 290 K | 275.6 ± 11 | –
[2], 295 K | 278.7 ± 11 | –
[2], 300 K | 281.8 ± 11 | –
[2], 305 K | 284.7 ± 11 | –
[2], 310 K | 287.6 ± 11 | –
[2], 315 K | 290.5 ± 11 | –
[2], 320 K | 293.2 ± 11 | –
[2], 325 K | 295.8 ± 12 | –
[2], 330 K | 298.2 ± 12 | –
[2], 335 K | 300.4 ± 12 | –
[2], 340 K | 302.7 ± 12 | –
[2], 345 K | 305.1 ± 12 | –
[2], 350 K | 307.7 ± 12 | –
[2], 355 K | 309.9 ± 12 | –
